In brackets after ≈: the same amount, converted by molar mass.
Legend:
[1] = system: M. tb (strain H37Rv); experiment: MIC90 against replicating M.tb (MABA); type: cell-based, Mycobacterium tuberculosis; conditions: Mycobacterium tuberculosis, aerobic (replicating) conditions, 90% inhibition of growth
[2] = system: M. tb (strain H37Rv); experiment: MIC90 against non-replicating M.tb (LORA); type: cell-based, Mycobacterium tuberculosis; conditions: Mycobacterium tuberculosis, H37RV, read-out: MIC90 LORA
Method: In these assays, 1 is a potent inhibitor, with MICs of 0.08 and 0.12 µg/mL, respectively. Replacement of the naphthalene C-unit of 1 with various pyridyls produced analogues of considerably lower lipophilicity, with clogP values ranging from 6.89 down to 2.98.

[3] = in vitro; conditions: mouse, microsomes
[4] = molecular target: hERG potassium channel (Homo sapiens, UniProt Q12809); experiment: Inhibition of hERG potassium current (patch clamp electrophysiology); conditions: for IC50: read-out: hERG IC50, manual patch clamp, 5-concentration dose-response
[5] = in vitro; conditions: human, microsomes
[6] = mouse, in vivo

Sequence of hERG potassium channel (Q12809 whole entry): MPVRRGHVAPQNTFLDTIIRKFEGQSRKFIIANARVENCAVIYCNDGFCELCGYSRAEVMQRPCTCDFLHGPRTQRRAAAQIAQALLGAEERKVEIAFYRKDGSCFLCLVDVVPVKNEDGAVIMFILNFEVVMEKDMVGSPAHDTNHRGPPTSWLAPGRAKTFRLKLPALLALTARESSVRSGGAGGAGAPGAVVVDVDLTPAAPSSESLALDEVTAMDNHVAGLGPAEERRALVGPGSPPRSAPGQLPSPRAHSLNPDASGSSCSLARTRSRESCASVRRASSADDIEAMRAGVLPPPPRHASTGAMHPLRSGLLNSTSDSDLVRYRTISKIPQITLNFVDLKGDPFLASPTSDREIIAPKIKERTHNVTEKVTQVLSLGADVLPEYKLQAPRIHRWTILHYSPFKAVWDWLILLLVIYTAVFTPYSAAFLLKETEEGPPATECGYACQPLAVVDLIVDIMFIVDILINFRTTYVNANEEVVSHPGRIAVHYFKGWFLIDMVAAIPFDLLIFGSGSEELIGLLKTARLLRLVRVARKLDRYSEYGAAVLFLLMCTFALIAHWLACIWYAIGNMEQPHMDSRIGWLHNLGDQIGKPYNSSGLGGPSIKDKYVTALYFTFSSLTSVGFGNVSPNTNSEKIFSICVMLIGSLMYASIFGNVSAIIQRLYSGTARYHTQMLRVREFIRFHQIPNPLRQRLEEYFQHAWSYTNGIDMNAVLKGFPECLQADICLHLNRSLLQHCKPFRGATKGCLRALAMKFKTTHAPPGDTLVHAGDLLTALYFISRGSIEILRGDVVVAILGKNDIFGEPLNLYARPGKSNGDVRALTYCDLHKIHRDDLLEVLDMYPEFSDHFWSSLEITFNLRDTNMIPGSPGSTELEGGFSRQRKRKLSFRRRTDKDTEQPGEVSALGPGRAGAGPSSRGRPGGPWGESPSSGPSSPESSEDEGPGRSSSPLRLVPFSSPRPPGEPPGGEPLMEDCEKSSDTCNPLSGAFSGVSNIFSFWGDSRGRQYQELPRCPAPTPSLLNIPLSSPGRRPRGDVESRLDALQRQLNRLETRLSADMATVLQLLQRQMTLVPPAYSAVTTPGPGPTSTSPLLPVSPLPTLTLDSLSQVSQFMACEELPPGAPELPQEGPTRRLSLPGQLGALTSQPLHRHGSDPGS

Compound: COc1cccc(C(c2cc3cc(Br)ccc3nc2OC)C(O)(CCN(C)C)c2cncc(C)c2)c1OC (centres unmarked) [Compound 28]
- MIC90 [1]: 0.3 µg/mL (≈ 0.517 µM)
- MIC90 [2]: 0.57 µg/mL (≈ 0.982 µM)

Compound: COc1cccc(C(c2cc3cc(C#N)ccc3nc2OC)C(O)(CCN(C)C)c2cncc(C)c2)c1OC (centres unmarked) [Compound 29]
- MIC90 [1]: 4.2 µg/mL (≈ 7.98 µM)
- MIC90 [2]: 3.8 µg/mL (≈ 7.22 µM)

Compound: COc1cccc(C(c2cc3cc(Br)ccc3nc2OC)C(O)(CCN(C)C)c2cncc(C)c2)c1F (centres unmarked) [Compound 30]
- MIC90 [1]: 0.16 µg/mL (≈ 0.281 µM)
- MIC90 [2]: 0.2 µg/mL (≈ 0.352 µM)

Compound: COc1cccc(C(c2cc3cc(C#N)ccc3nc2OC)C(O)(CCN(C)C)c2cncc(C)c2)c1F (centres unmarked) [Compound 31]
- MIC90 [1]: 3.3 µg/mL (≈ 6.41 µM)
- MIC90 [2]: 2.5 µg/mL (≈ 4.86 µM)

Compound: COc1cccc(C(c2cc3cc(Br)ccc3nc2OC)C(O)(CCN(C)C)c2cc(C)cnc2C)c1F (centres unmarked) [Compound 32]
- MIC90 [1]: 0.07 µg/mL (≈ 0.12 µM)
- MIC90 [2]: 0.23 µg/mL (≈ 0.395 µM)

Compound: COc1cccc(C(c2cc3cc(Br)ccc3nc2OC)C(O)(CCN(C)C)c2cnc(C)c(C)c2)c1OC (centres unmarked) [Compound 34]
- MIC90 [1]: 0.07 µg/mL (≈ 0.118 µM)
- MIC90 [2]: 0.14 µg/mL (≈ 0.235 µM)

Compound: COc1cccc(C(c2cc3cc(Br)ccc3nc2OC)C(O)(CCN(C)C)c2cnc(C)c(C)c2)c1F (centres unmarked) [Compound 35]
- MIC90 [1]: 0.31 µg/mL (≈ 0.532 µM)
- MIC90 [2]: 0.29 µg/mL (≈ 0.498 µM)

Compound: COc1cccc(C(c2cc3cc(C#N)ccc3nc2OC)C(O)(CCN(C)C)c2cnc(C)c(C)c2)c1F (centres unmarked) [Compound 36]
- MIC90 [1]: 2.4 µg/mL (≈ 4.54 µM)
- MIC90 [2]: 3.3 µg/mL (≈ 6.24 µM)

Compound: COc1cccc(C(c2cc3cc(Br)ccc3nc2OC)C(O)(CCN(C)C)c2cnc(C)cc2C)c1F (centres unmarked) [Compound 37]
- MIC90 [1]: 0.53 µg/mL (≈ 0.91 µM)
- MIC90 [2]: 0.29 µg/mL (≈ 0.498 µM)

Compound: COc1nc2ccc(C#N)cc2cc1C(c1cccc2c1OCO2)C(O)(CCN(C)C)c1cccnc1OC (centres unmarked) [Compound 42]
- MIC90 [1]: 2.1 µg/mL (≈ 3.99 µM)

Compound: COc1ccc(C(O)(CCN(C)C)C(c2cc3cc(Br)ccc3nc2OC)c2cccc(OC)c2OC)cn1 (centres unmarked) [Compound 43]
- MIC90 [1]: 0.28 µg/mL (≈ 0.469 µM)
- MIC90 [2]: 0.54 µg/mL (≈ 0.905 µM)

Compound: COc1ccc(C(O)(CCN(C)C)C(c2cc3cc(C#N)ccc3nc2OC)c2cccc(OC)c2OC)cn1 (centres unmarked) [Compound 44]
- MIC90 [1]: 2.1 µg/mL (≈ 3.87 µM)

Compound: COc1ccc(C(O)(CCN(C)C)C(c2cc3cc(Br)ccc3nc2OC)c2cccc(OC)c2F)cn1 (centres unmarked) [Compound 45]
- MIC90 [1]: 0.12 µg/mL (≈ 0.205 µM)
- MIC90 [2]: 0.08 µg/mL (≈ 0.137 µM)

Compound: COc1cnc(OC)c(C(O)(CCN(C)C)C(c2cc3cc(Br)ccc3nc2OC)c2cccc(OC)c2F)c1 (centres unmarked) [Compound 46]
- microsomal CLint [3]: 53 µL/min/mg
- IC50 [4]: 2.9 µM
- MIC90 [1]: 0.09 µg/mL (≈ 0.146 µM)
- microsomal CLint [5]: 7 µL/min/mg
- MIC90 [2]: 0.04 µg/mL (≈ 0.0651 µM)

Compound: COc1cc(C(O)(CCN(C)C)C(c2cc3cc(Br)ccc3nc2OC)c2cccc(OC)c2F)cnc1OC (centres unmarked) [Compound 47]
- MIC90 [1]: 0.07 µg/mL (≈ 0.114 µM)
- MIC90 [2]: 0.11 µg/mL (≈ 0.179 µM)

Compound: COc1cc(C(O)(CCN(C)C)C(c2cc3cc(Br)ccc3nc2OC)c2ccnc(OC)c2OC)c(OC)nc1OC (centres unmarked) [Compound 49]
- microsomal CLint [3]: 7 µL/min/mg
- IC50 [4]: 2.7 µM
- MIC90 [1]: 0.57 µg/mL (≈ 0.867 µM)
- AUC: exposure, AUCinf [6]: 9130 ng·h/mL
- IV Cl: IV clearance ([6]; iv): 10 mL/min/kg
- Vz: IV apparent volume of distribution during terminal phase ([6]; iv): 12 L/kg
- F: oral bioavailability ([6]; po): 52%
- microsomal CLint [5]: 5 µL/min/mg
- MIC90 [2]: 1.4 µg/mL (≈ 2.13 µM)

Compound: COc1cccc(C(c2cc3cc(Br)ccc3nc2OC)C(O)(CCN(C)C)c2ccncc2C)c1F (centres unmarked) [Compound 50]
- MIC90 [1]: 1 µg/mL (≈ 1.76 µM)
- MIC90 [2]: 1.1 µg/mL (≈ 1.93 µM)

Compound: COc1cccc(C(c2cc3cc(Br)ccc3nc2OC)C(O)(CCN(C)C)c2ccnc(C)c2)c1F (centres unmarked) [Compound 51]
- MIC90 [1]: 0.47 µg/mL (≈ 0.827 µM)
- MIC90 [2]: 0.58 µg/mL (≈ 1.02 µM)

Compound: COc1cccc(C(c2cc3cc(C#N)ccc3nc2OC)C(O)(CCN(C)C)c2ccnc(C)c2)c1F (centres unmarked) [Compound 52]
- MIC90 [1]: > 5 µg/mL
- MIC90 [2]: 3.8 µg/mL (≈ 7.38 µM)

Compound: COc1nc2ccc(Br)cc2cc1C(c1cccc(C)c1)C(O)(CCN(C)C)c1cc(C)nc(C)c1 (centres unmarked) [Compound 53]
- MIC90 [1]: 0.11 µg/mL (≈ 0.201 µM)
- MIC90 [2]: 0.49 µg/mL (≈ 0.893 µM)

Compound: COc1cccc(C(c2cc3cc(Br)ccc3nc2OC)C(O)(CCN(C)C)c2cc(C)nc(C)c2)c1F (centres unmarked) [Compound 54]
- MIC90 [1]: 0.11 µg/mL (≈ 0.189 µM)
- MIC90 [2]: 0.3 µg/mL (≈ 0.515 µM)

Compound: CCc1cc(C(O)(CCN(C)C)C(c2cc3cc(Br)ccc3nc2OC)c2cccc(OC)c2F)cc(CC)n1 (centres unmarked) [Compound 58]
- microsomal CLint [3]: 20 µL/min/mg
- hERG % inhibition at 3 µM ([4]; 3 µM, manual or (less accurate) QPatch assay): 63%/3
- MIC90 [1]: 0.03 µg/mL (≈ 0.0491 µM)
- microsomal CLint [5]: 8 µL/min/mg
- MIC90 [2]: 0.21 µg/mL (≈ 0.344 µM)

Compound: CCc1cc(C(O)(CCN(C)C)C(c2cc3cc(C#N)ccc3nc2OC)c2cccc(OC)c2F)cc(CC)n1 (centres unmarked) [Compound 59]
- microsomal CLint [3]: 27 µL/min/mg
- hERG % inhibition at 1 µM ([4]; 1 µM, manual assay): 48%/1
- MIC90 [1]: 0.19 µg/mL (≈ 0.341 µM)
- microsomal CLint [5]: 10 µL/min/mg
- MIC90 [2]: 0.28 µg/mL (≈ 0.503 µM)

Compound: COc1cc(C(O)(CCN(C)C)C(c2cc3cc(Br)ccc3nc2OC)c2cccc(OC)c2F)c(OC)cn1 (centres unmarked) [Compound 60]
- microsomal CLint [3]: 25 µL/min/mg
- IC50 [4]: 1.7 µM
- MIC90 [1]: 0.11 µg/mL (≈ 0.179 µM)
- microsomal CLint [5]: 7 µL/min/mg
- MIC90 [2]: 0.12 µg/mL (≈ 0.195 µM)
